Values after ≈ are worked out from the molar mass of the structure shown.
What was measured:
[1] = Solubility in water at pH 7.4; format: physicochemical
[2] = molecular target: Hepatocyte growth factor receptor (Homo sapiens, UniProt P08581); assay: Inhibition of GST-tagged human c-Met expressed in SF9 cells
Chain of Hepatocyte growth factor receptor (P08581 whole entry): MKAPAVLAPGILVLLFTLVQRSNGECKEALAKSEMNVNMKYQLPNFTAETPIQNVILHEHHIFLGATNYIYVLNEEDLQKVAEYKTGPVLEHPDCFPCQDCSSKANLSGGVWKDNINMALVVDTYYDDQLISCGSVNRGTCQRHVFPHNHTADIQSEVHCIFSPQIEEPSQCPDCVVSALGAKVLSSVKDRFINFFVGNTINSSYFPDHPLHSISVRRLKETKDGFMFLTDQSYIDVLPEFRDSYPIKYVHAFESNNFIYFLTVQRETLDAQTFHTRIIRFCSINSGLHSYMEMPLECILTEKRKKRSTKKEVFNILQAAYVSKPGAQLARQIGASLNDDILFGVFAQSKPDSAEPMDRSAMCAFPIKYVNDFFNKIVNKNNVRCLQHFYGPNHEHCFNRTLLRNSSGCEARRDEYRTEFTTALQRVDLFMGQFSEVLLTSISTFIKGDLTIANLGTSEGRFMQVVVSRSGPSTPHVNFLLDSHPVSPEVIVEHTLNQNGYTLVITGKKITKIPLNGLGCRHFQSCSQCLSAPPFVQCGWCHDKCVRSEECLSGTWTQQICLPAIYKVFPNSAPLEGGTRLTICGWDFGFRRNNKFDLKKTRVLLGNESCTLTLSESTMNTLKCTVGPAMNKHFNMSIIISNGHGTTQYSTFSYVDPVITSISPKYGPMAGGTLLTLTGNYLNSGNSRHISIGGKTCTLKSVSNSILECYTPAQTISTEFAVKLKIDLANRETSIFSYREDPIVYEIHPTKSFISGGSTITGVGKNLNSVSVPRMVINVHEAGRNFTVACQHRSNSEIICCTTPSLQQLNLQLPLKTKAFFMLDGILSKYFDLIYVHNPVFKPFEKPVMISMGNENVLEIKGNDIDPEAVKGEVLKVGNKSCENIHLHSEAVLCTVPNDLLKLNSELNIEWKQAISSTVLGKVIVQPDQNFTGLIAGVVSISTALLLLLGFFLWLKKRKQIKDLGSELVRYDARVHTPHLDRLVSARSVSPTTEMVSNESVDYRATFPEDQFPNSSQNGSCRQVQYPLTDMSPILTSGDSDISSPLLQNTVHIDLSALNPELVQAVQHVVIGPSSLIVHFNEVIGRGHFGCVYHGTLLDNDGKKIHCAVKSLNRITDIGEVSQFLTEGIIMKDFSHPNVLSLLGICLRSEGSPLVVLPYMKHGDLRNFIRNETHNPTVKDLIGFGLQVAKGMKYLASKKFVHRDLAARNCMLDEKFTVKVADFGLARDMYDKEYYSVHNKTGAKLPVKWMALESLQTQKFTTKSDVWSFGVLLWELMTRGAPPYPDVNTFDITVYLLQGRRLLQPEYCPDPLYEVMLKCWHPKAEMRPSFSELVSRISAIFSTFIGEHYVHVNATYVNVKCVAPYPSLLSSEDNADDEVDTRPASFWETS

Row | SMILES | solubility [1] [µg/mL] | IC50 [2]
1 | N#Cc1ccc2[nH]c(-c3ccncc3)c(-c3cnc(N)nc3)c2n1 |  | Not Active
2 | CS(=O)(=O)c1ccc(-c2c(-c3ccncc3)[nH]c3ccc(C#N)nc23)cc1 |  | Not Active
3 | N#Cc1ccc2[nH]c(-c3ccccc3)c(-c3ccc(F)cc3)c2n1 |  | Not Active

More lines, now with the values ahead:

Row | solubility [1] [µg/mL] | IC50 [2] | SMILES
4 | 1 (≈ 3.18 µM) |  | N#Cc1ccc2[nH]c(-c3ccncc3)c(-c3ccc(F)cc3)c2n1
5 |  | Not Active | N#Cc1ccc2[nH]c(-c3ccncc3)c(-c3ccncc3)c2n1
